Each structure is given as a SMILES string.

The target of assay [1] is T1, rat central A1 adenosinergic receptors (Rattus norvegicus, UniProt P25099).
T1 construct: After the animal has been sacrificed by decapitation, the brain is quickly removed and washed in cold isotonic solution; from tissue; host or cells: rat brain, membrane preparation from the two hemispheres
T1 sequence (P25099 1-326): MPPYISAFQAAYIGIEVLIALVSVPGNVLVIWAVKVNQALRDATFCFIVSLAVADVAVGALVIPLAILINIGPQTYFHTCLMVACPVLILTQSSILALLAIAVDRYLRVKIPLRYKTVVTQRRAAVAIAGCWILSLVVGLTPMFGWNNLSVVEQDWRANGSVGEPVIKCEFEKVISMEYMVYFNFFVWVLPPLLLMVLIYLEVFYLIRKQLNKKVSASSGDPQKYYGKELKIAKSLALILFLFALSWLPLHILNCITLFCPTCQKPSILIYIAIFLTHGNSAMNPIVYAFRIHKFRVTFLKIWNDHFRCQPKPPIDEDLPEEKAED
The assay is described as follows: Binding to adenosine A1 receptors ([3H] PIA displacement). The following applies: [3H] PIA 2.5 nM, n=3; for inhibition at 10 µM: read-out: % displacement of the labeled ligand, A1, 1E-5M; for inhibition at 0.1 µM: read-out: % displacement of the labeled ligand, A1, 1E-7M. The procedure:
(§1) The affinity of the products of the Examples for the rat central A1 and A2 adenosinergic receptors is determined by the competitive technique using a radioactive ligand specifically bound either to the A1 receptors ([^3 H] PIA) or to the A2 receptors ([^3 H] NECA).
After the animal has been sacrificed by decapitation, the brain is quickly removed and washed in cold isotonic solution. The two hemispheres are separated and weighed and each of them is introduced into a polyallomer tube containing 25 volumes of cold homogenization buffer. Homogenization is effected using an Ultra-Turrax for 30 seconds (3 times 10 seconds with 10-second intervals, 70% of the maximum speed). The ground material obtained is centrifuged at 1000 g (≈3000 rpm) for 10 minutes at 4° C.
The supernatant is centrifuged again at 48,000 g (≈20,000 rpm) for 20 minutes at 4° C.
When this step is complete, the residue is taken up with 4 volumes of homogenization buffer, resuspended using a Vortex and homogenized with the Ultra-Turrax. Adenosine deaminase is then added at a rate of 1 U/ml, i.e. 1 μl/ml of homogenate, using a 10 μl Hamilton syringe.
After this treatment, the homogenate is shaken for 30 minutes at room temperature and then centrifuged at […] (≈20,000 rpm) for 30 minutes at 4° C.
The residue obtained is resuspended in 10 volumes of homogenization buffer and passed through the Ultra-Turrax for 20 seconds (2 times 10 seconds with a 10-second interval, 70% of the maximum speed).
The homogenate prepared in this way is used for the competitive tests. It is kept at 4° C. if the studies take place the same day, or stored at -20° C. in the form of 10 ml aliquots.
After the homogenate has been thawed at room temperature, it is passed through a Potter mill (6 manual to-and-fro movements, speed 6), diluted to 2/5 in incubation buffer and placed in a water bath thermostated at 4° C., with shaking, until the end of the experiment.
50 μl of [^3 H] PIA at 100 nM, i.e. 2.5 nM in the final reaction medium allowing for the 1/40 dilution, and 50 μl of the product of the Example at the concentrations considered ([…] and 10^-7 M) are introduced into the reaction tubes. The reaction is initiated by the addition of 1 ml of homogenate and 900 μl of incubation buffer. The procedure is identical for all the […] studied.
The tubes are shaken and incubated in a water bath at 20° C. for 30 minutes. When the incubation is complete, the contents of the tubes are filtered on Whatman GF/B paper. Each tube is washed twice with 2 ml of rinsing buffer and then the filters themselves are rinsed with 3 ml of this same buffer.
The filters are then transferred to counting flasks and 10 ml of liquid scintillator (Ready Solv HP/b, Beckman) are added.
After they have been shaken, the flasks are stored in a refrigerator overnight and the radio-activity is then determined in a liquid scintillation counter.
3 tests are performed for each concentration studied. The non-specific binding of the [^3 H] PIA is assessed by measuring the amount of radioactivity retained on the filter in the presence of 10^-5 M phenylisopropyladenosine (PIA). The value of the non-specific binding is systematically subtracted from that of the tests.
(§2) The results are expressed for each product in the form of the percentage displacement (n=3) of the labeled radioligand at concentrations of 10^-5 M and 10^-7 M.

Assay [2] addresses T2, rat central A2 adenosinergic receptors (Rattus norvegicus, UniProt P30543).
T2 construct: the striatum is removed from each of them (Bruns et al., 1986); from tissue; host or cells: rat striatum, homogenate (membrane preparation)
Put plainly: Binding to adenosine A2 receptors ([3H] NECA displacement). The following applies: [3H] NECA 4 nM, n=3; for inhibition at 10 µM: read-out: % displacement of the labeled ligand, A2, 1E-5M; for inhibition at 0.1 µM: read-out: % displacement of the labeled ligand, A2, 1E-7M. On the procedure: as §1
Method of studying the A2 receptors Membrane preparation
After decapitation of the animal, the brain is quickly removed and washed in cold isotonic solution. The two hemispheres are separated and the striatum is removed from each of them (Bruns et al., 1986), weighed and introduced into a polyallomer tube containing 10 volumes of cold homogenization buffer. The tissue is homogenized with an Ultra-Turrax for 30 seconds (3 times 10 seconds with 10-second intervals, 70% of the maximum speed). The ground material is centrifuged at 50,000 g (≈20,500 rpm) for 10 minutes at 4° C.
The residue obtained is resuspended in 10 volumes of homogenization buffer using a Vortex and homogenized with the Ultra-Turrax (5 to 10 seconds, 70% of the maximum speed).
Adenosine deaminase is then added at a rate of 1 U/ml, i.e. 1 μl/ml of homogenate, using a 10 μl Hamilton syringe. The homogenate treated in this way is shaken at room temperature for 30 minutes.
When the incubation is complete, the homogenate is centrifuged at 50,000 g (≈20,500 rpm) for 10 minutes at 4° C.
The residue is taken up with 5 volumes of cold homogenization buffer and passed through the Ultra-Turrax (2 times 10 seconds with a 10-second interval, 70% of the maximum speed) and the homogenate prepared in this way is finally frozen at -70° C. Competitive test
After the homogenate has been thawed at room temperature, 15 volumes of incubation buffer are added. The homogenate is shaken on a Vortex, passed through a Potter mill (6 to-and-fro movements, speed 6), diluted to 1/10 in incubation buffer and finally placed in a water bath thermostated at 4° C., with shaking, until the end of the experiment.
50 μl of [^3 H] NECA at 160 nM, i.e. 4 nM in the final reaction medium allowing for the 1/40 dilution, and 50 μl of the product of the Example at the concentrations considered (10^-5 M and 10^-7 M) are introduced into the reaction tubes. The reaction is initiated by the addition of 1 ml of homogenate and 900 μl of incubation buffer. The procedure is similar for all the compounds studied.
The tubes are shaken and incubated in a water bath at 25° C. for 60 minutes. When the incubation is complete, the contents of the tubes are filtered on Whatman GF/B paper. Each tube is washed twice with 2 ml of rinsing buffer and then the filters themselves are rinsed with 3 ml of this same buffer before being transferred to counting flasks.
10 ml of liquid scintillator (Ready Solv HP/b, Beckman) are added to all the flasks. These are shaken and stored in a refrigerator overnight. The radioactivity is determined in a liquid scintillation counter.
3 tests are performed for each concentration studied. The non-specific binding of the [^3 H] NECA is determined by measuring the amount of radioactivity retained on the filter in the presence of 5 μM N-ethylcarboxamidoadenosine (NECA). The value of the non-specific binding is systematically subtracted from that of the tests.
as §2

Assay [3] is described as follows: Phenylbenzoquinone test (analgesic activity). It is filed as in vivo. As to conditions: Mus musculus, 1 h; mice; oral, one hour before phenylbenzoquinone i.p.; 5 minutes observation; read-out: Phenylbenzoquinone test 50% inhibitory dose. On the procedure: 2. Phenylbenzoquinone test
The intraperitoneal injection of phenylbenzoquinone causes twisting and stretching movements in mice. Analgesics prevent or reduce this syndrome, which can be considered as the exteriorization of diffuse abdominal pain.
A 0.02% solution of phenylbenzoquinone in water is administered in a volume of 1 ml/100 g.
The products of the Examples are administered orally one hour before the injection of phenylbenzoquinone.
The stretching and twisting movements are counted for each mouse over an observation period of 5 minutes.

T2 sequence (P30543 whole entry): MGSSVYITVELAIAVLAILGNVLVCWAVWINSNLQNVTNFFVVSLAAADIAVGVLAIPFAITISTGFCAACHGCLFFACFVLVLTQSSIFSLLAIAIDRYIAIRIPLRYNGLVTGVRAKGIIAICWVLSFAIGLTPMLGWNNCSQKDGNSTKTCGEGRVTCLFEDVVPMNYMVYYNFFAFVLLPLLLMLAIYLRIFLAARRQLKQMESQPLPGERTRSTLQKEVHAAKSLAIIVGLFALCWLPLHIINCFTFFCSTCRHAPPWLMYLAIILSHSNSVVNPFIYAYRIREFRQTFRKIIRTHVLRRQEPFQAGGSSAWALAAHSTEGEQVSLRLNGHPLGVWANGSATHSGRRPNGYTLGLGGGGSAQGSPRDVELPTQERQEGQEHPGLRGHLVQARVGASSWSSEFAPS

In the case of `O=C(NC1CC1)[C@H]1O[C@@H](n2cnc3c(NCCc4cn(Cc5ccc(Cl)cc5)c5ccccc45)ncnc32)[C@H](O)[C@@H]1O` [Example 61, β-D-Ribofuranuronamido-1-[6-[[2-[1-(4-chlorobenzyl)indol-3-yl]ethyl]amino]-9H-purin-9-yl]-N-cyclopropyl-1-deoxy], the inhibition at 10 µM in assay [1] (1E-5M) turned out to be 98%; in assay [2] (1E-5M), 91%. Further, the figures for the inhibition at 0.1 µM in assay [1] (1E-7M) and in assay [2] (1E-7M) were 47% and 30%, respectively. Also, the ED50 in assay [3] stood at 0.9 mg/kg.

Consider `COCCn1cc(CCNc2ncnc3c2ncn3[C@@H]2O[C@H](C(=O)NC3CC3)[C@@H](O)[C@H]2O)c2ccccc21` [Example 63, β-D-Ribofuranuronamido-N-cyclopropyl-1-deoxy-1-[6-[[2-[1-(2-methoxyethyl)indol-3-yl]ethyl]amino]-9H-purin-9-yl]], for which the inhibition at 10 µM in assay [1] (1E-5M) worked out at 98%; in assay [2] (1E-5M), 90%. Moreover, the inhibition at 0.1 µM is 61% in assay [1] (1E-7M) and 19% in assay [2] (1E-7M). Further, the ED50 in assay [3] was 10 mg/kg.

For the molecule `O=C(NC1CC1)[C@H]1O[C@@H](n2cnc3c(NCCc4cn(C5CCCC5)c5ccccc45)ncnc32)[C@H](O)[C@@H]1O` [Example 64, β-D-Ribofuranuronamido-1-[6-[[2-[1-cyclopentylindol-3-yl]ethyl]amino]-9H-purin-9-yl]-N-cyclopropyl-1-deoxy], the inhibition at 10 µM amounted to 96% in assay [1] (1E-5M) and 90% in assay [2] (1E-5M). The inhibition at 0.1 µM in assay [1] (1E-7M) was determined as 21%; in assay [2] (1E-7M), 28%. Moreover, the ED50 in assay [3] amounted to 0.3 mg/kg.

For `CC(C)n1cc(CCNc2ncnc3c2ncn3[C@@H]2O[C@H](C(=O)NC3CC3)[C@@H](O)[C@H]2O)c2ccccc21` [Example 65, β-D-Ribofuranuronamido-N-cyclopropyl-1-deoxy-1-[6-[[2-[1-isopropylindol-3-yl]-ethyl]amino]-9H-purin-9-yl]], the inhibition at 10 µM was 87% in assay [1] (1E-5M) and 91% in assay [2] (1E-5M). In addition, the inhibition at 0.1 µM in assay [1] (1E-7M) stood at 4%; in assay [2] (1E-7M) it was 14%. For the same molecule, the ED50 in assay [3] is 0.3 mg/kg.

Take `Cc1ccc(Cn2cc(CCNc3ncnc4c3ncn4[C@@H]3O[C@H](C(=O)NC4CC4)[C@@H](O)[C@H]3O)c3ccccc32)cc1` [Example 66, β-D-Ribofuranuronamido-N-cyclopropyl-1-deoxy-1-[6-[[2-[1-(4-methylbenzyl)indol-3-yl]ethyl]amino]-9H-purin-9-yl]]: the values for the inhibition at 10 µM in assay [1] (1E-5M) and in assay [2] (1E-5M) were 97% and 89%, respectively. The inhibition at 0.1 µM worked out at 37% in assay [1] (1E-7M) and 21% in assay [2] (1E-7M). The ED50 in assay [3] turned out to be 3 mg/kg.

Consider `O=C(NC1CC1)[C@H]1O[C@@H](n2cnc3c(NCCc4cn(CCN5CCOCC5)c5ccccc45)ncnc32)[C@H](O)[C@@H]1O` [Example 69, β-D-Ribofuranuronamido-N-cyclopropyl-1-deoxy-1-[6-[[2-[1-(2-N-morpholinoethyl)indol-3-yl]ethyl]amino]-9H-purin-9-yl]], for which the inhibition at 10 µM in assay [1] (1E-5M) turned out to be 93%; in assay [2] (1E-5M) it was 90%. The inhibition at 0.1 µM was 63% in assay [1] (1E-7M) and 12% in assay [2] (1E-7M).

As to `CN(C)CCn1cc(CCNc2ncnc3c2ncn3[C@@H]2O[C@H](C(=O)NC3CC3)[C@@H](O)[C@H]2O)c2ccccc21` [Example 70, β-D-Ribofuranuronamido-N-cyclopropyl-1-deoxy-1-[6-[[2-[1-(2-N,N-dimethylaminoethyl)indol-3-yl]ethyl]amino]-9H-purin-9-yl]], the figures for the inhibition at 10 µM in assay [1] (1E-5M) and in assay [2] (1E-5M) were 100% and 94%, respectively. The values for the inhibition at 0.1 µM in assay [1] (1E-7M) and in assay [2] (1E-7M) were 91% and 44%, respectively.

Take `O=C(NC1CC1)[C@H]1O[C@@H](n2cnc3c(NCCc4cn(CCN5CCCCC5)c5ccccc45)ncnc32)[C@H](O)[C@@H]1O` [Example 71 (base), β-D-Ribofuranuronamido-N-cyclopropyl-1-deoxy-1-[6-[[2-[1-(2-N-piperidinoethyl)indol-3-yl]ethyl]amino]-9H-purin-9-yl]]: in assay [1] (1E-5M, 10 µM), the “% displacement of the labeled ligand, A1, 1E-5M” value turned out to be 99%. Besides, the “% displacement of the labeled ligand, A1, 1E-7M” value in assay [1] (1E-7M, 0.1 µM) came to 94%. Further, the “% displacement of the labeled ligand, A2, 1E-5M” value in assay [2] (1E-5M, 10 µM) was 92%. For the same molecule, the “% displacement of the labeled ligand, A2, 1E-7M” value in assay [2] (1E-7M, 0.1 µM) was found to be 46%.

These data come from patent US5480983A, “Adenosine derivatives, preparation methods and pharmaceutical compositions containing them” (Laboratoires UPSA, priority 1992, dated 1996).
